Reference: ChEMBL document CHEMBL1138029, “Identification of neutral 4-O-alkyl quinolone nonpeptide GnRH receptor antagonists” (Bioorg Med Chem Lett, 2004)

How the values were obtained:
[1] = target: T1, Gonadotropin-releasing hormone receptor (Homo sapiens, UniProt P30968); assay: Binding affinity towards human gonadotropin releasing hormone receptor expressed in CHO cells was determined by using [125I]-buserelin as radioligand; format: cell-based
T1 sequence (P30968 whole entry): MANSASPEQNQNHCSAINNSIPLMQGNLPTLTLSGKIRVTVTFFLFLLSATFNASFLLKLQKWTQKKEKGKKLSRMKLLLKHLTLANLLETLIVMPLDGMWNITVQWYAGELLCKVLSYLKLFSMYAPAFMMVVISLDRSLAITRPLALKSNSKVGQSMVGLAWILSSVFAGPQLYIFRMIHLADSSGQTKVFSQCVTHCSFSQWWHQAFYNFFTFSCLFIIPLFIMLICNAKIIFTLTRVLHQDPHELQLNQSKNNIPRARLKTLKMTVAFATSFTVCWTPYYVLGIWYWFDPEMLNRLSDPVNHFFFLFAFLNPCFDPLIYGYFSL

[2] = target: T1, Gonadotropin-releasing hormone receptor; assay: Inhibition of GnRH-stimulated phosphatidyl inositol hydrolysis in CHO cells expressing GnRH receptor; format: functional, cell-based

| IC50 [1] [nM] | IC50 [2] [nM] | Structure (SMILES) |
| --- | --- | --- |
| 0.9 | 49 | Cc1cc(-c2c(O)nc3cc(Cl)c(C(=O)Nc4cnsn4)cc3c2OCC[C@H]2CCO2)cc(C)c1C |
| 243 | 1150 | Cc1cc(-c2c(O)nc3cc(Cl)c(C(=O)Nc4cnsn4)cc3c2OCCC2CCCC2)cc(C)c1C |
| 0.6 | 3.3 | Cc1cc(-c2c(OCCC3CCCO3)c3cc(C(=O)Nc4ccncn4)c(Cl)cc3[nH]c2=O)cc(C)c1C (stereo not given) |
| 2 | 18 | Cc1cc(-c2c(O)nc3cc(Cl)c(C(=O)Nc4ccncn4)cc3c2OCC[C@@H]2CCC[C@H](C(F)(F)F)N2)cc(C)c1C |
| 0.3 | 0.7 | Cc1cc(-c2c(O)nc3cc(Cl)c(C(=O)Nc4cnsn4)cc3c2OCC[C@H]2CCC(=O)N2)cc(C)c1C |
| 2 | 18 | Cc1cc(-c2c(O)nc3cc(Cl)c(C(=O)Nc4ccncn4)cc3c2OCC[C@@H]2CCC[C@H](C(F)(F)F)N2C)cc(C)c1C |
| 0.1 | 1.3 | Cc1cc(-c2c(OCC[C@H]3CC(=O)N3)c3cc(C(=O)Nc4cnsn4)c(Cl)cc3[nH]c2=O)cc(C)c1C |

The next lines start with the compound.

| Structure (SMILES) | IC50 [1] [nM] | IC50 [2] [nM] |
| --- | --- | --- |
| Cc1cc(-c2c(OCC[C@@H]3CCCCN3)c3cc(C(=O)Nc4cnsn4)c(Cl)cc3[nH]c2=O)cc(C)c1C | 0.55 | 1.6 |
| Cc1cc(-c2c(O)nc3cc(Cl)c(C(=O)Nc4cnsn4)cc3c2OCCC2OCCO2)cc(C)c1C | 0.6 | 67 |
| Cc1cc(-c2c(OCC[C@@H]3CCN3)c3cc(C(=O)Nc4ccncn4)c(Cl)cc3[nH]c2=O)cc(C)c1C |  | 0.9 |
| Cc1cc(-c2c(OCC[C@@H]3CCN3)c3cc(C(=O)Nc4cnsn4)c(Cl)cc3[nH]c2=O)cc(C)c1C | 0.32 | 0.8 |
| Cc1cc(-c2c(O)nc3cc(Cl)c(C(=O)Nc4cnsn4)cc3c2OCC[C@H]2CCC(=O)N2C)cc(C)c1C | 1.4 | 11 |
| Cc1cc(-c2c(O)nc3cc(Cl)c(C(=O)Nc4ccncn4)cc3c2OCC[C@@H]2CCCN2)cc(C)c1C | 0.8 | 2.2 |
| Cc1cc(-c2c(OCCC3CC4CCN3CC4)c3cc(C(=O)Nc4cnsn4)c(Cl)cc3[nH]c2=O)cc(C)c1C (stereo not given) | 0.6 | 5.8 |
| Cc1cc(-c2c(OCC[C@@H]3CCCCN3)c3cc(C(=O)Nc4ccncn4)c(Cl)cc3[nH]c2=O)cc(C)c1C |  | 2.2 |
| Cc1cc(-c2c(OCCC3COCCN3)c3cc(C(=O)Nc4cnsn4)c(Cl)cc3[nH]c2=O)cc(C)c1C (stereo not given) | 0.7 | 32 |
